Reference: patent publication US20230398228A1, “ERIBULIN-BASED ANTIBODY-DRUG CONJUGATES AND METHODS OF USE” (EISAI R&D MANAGEMENT CO., LTD., priority 2016, published 2023)
pIC50: −log10 of the molar value. Read-outs that look alike come from different tables or passages of the source.

How the values were obtained:
CaOV3 cells = assay: Crystal Violet cytotoxicity assay (Example 1), CaOV3; type: cell-based, human
Method: Typically, test reagents were serial diluted 1:4 in 2 mL deep-well dilution plates, starting at 1 μM (10 dilutions total). 100 μL of diluted samples were added to the cell plates (starting concentration of test samples at 500 nM). […] Medium was discarded, plates were washed once with 200 μL DPBS, stained with 50 μL of 0.2% Crystal Violet solution at room temperature for 15 min, and then washed extensively with tap water. Plates were air-dried, and Crystal Violet was dissolved with 200 μL of 1% SDS solution. Plates were read at 570 nm. […] Assays were performed using a seeding density of 1,000 cells per well and compound exposure was for a total of 5 days. When shorter-term exposure was desired, medium containing cytotoxic agents was removed after 4 hours and replaced with fresh growth medium prior to 5-day incubation. For OVCAR3, CaOV3, and NCI-H2110, cells were seeded at 3,000 cells/well and incubated for 5 days with ADC.
Screening of selected ADCs was also performed in CaOV3 (human ovarian carcinoma, FR^med(++), NCI-H2110 (human non-small cell lung carcinoma, FR^med(++), and/or OVCAR3 (human ovarian carcinoma, FR^med(++)) cells. The results of this screening are provided in Table 16.

ZR-75 cells = assay: Crystal Violet cytotoxicity assay (Example 4), ZR-75; type: cell-based, human
Method: (§1) Test reagents were serial diluted 1:3 in 2 mL deep-well dilution plates, starting at 200 nM (10 dilutions total). […] Medium was then discarded. […] Plates were read at 570 nm. Data was analyzed using GraphPad Prism 6.

BT-474 cells = assay: Crystal Violet cytotoxicity assay (Example 4), BT-474; type: cell-based, human
Method: as §1

[1] = system: human BM-MSCs co-cultured with MKN-74 cells; assay: 3D co-culture system (rStomach, zPredicta), MSC differentiation by flow cytometry; type: cell-based; conditions: 7 days treatment, MORAb-202 10 nM, MORAb-003 10 nM, eribulin […] and 0.2 nM (Table 41)
Method: All mesenchymal stem cell (MSC)-containing 3D co-culture experiments were conducted in zPredicta, using organ-specific 3D extracellular matrix systems such as rStomach™. Bone marrow mesenchymal stem cells (BM-MSCs) in rStomach™ were co-cultured with the Nuc Red Light MKN-74 gastric cancer cell line in quadruplicate in 48-well format for 12 days. […] Prior to culture, BM-MSCs were evaluated for target antigen expression and for markers of MSC differentiation (Table 40) by flow cytometry.
Controls included untreated and vehicle-treated (PBS and DMSO) cultures. MSC differentiation was monitored by light microscopy. Once visible differentiation was observed, samples were harvested for staining and flow cytometry analysis.
Bone marrow mesenchymal stem cells (BM-MSCs) in rStomach™ (zPredicta) were co-cultured with the MKN-74 gastric cancer cell line for 12 days. […] Once visible MSC differentiation was observed by light microscopy, samples were harvested for staining and flow cytometry analysis.

[2] = system: cancer associated fibroblasts (α-smooth muscle actin) in H2110 xenograft; conditions: 5 mg/kg single dose
Method: Prior to staining, slides were dewaxed and antigen was retreived in a Lab Vision™ PT Module (Thermo Scientific), in citrate buffer (pH 6.0) pre-warmed to 85° C., using the following program: warm to 97° C.; incubate at 97° C. for 30 min; and cool to 60° C. Slides were then transferred to double distilled water at room temperature for 5 min. Staining was performed in a Lab Vision™ Autostainer 360 (Thermo Scientific). Briefly, slides were washed twice in 1×Tris-buffered saline/Tween-20 (TBST) for 6 min/wash. Tissue sections were then incubated in blocking buffer (300 μL) (10% goat serum (Jackson Immunoresearch Laboratory Inc., Cat No. 005-000-121) diluted in 3% bovine serum albumin (BSA)-phosphate buffered saline (PBS)) for 1 hour, incubated in conjugated antibody (200 μL) (Table 38) for 1 hour, and washed five times in 1×TBST for 6 min/wash. Slides were counterstained with DAPI in mounting media, and coverslipped slides were allowed to harden for 30 min. Slides were processed on a Panoramic MIDI scanner (3[sequence]), and IHC images were analyzed using Halo software (Indica Labs).
Collected tumor samples were processed on slides, and cancer associated fibroblast (CAF) expression was analyzed by IHC.

Substance: MORAb-003-maleimido-PEG2-Val-Cit-pAB-eribulin [MORAb-202]
- pIC50 (CaOV3 cells; CaOV3 cells, mean of replicate experiments, where performed): 8.43
- cytotoxicity on CaOV3 cells, in words (CaOV3 cells; Example 1): potent cytotoxicity
- cytotoxicity on ZR-75 cells, in words (ZR-75 cells): little killing
- cytotoxicity on BT-474 cells, in words (BT-474 cells): little killing
- Percentage of live cells, Pericytes ([1]; PBS 14.6%): 11.4%
- Percentage of live cells, Adipocytes ([1]; PBS […]): 22.6%
- Percentage of live cells, MSCs ([1]; PBS […]): 43.7%
- CAF network structure (anti-α-SMA-FITC staining), in words ([2]; Day 3 and Day 5): prominent
- CAF network structure (anti-α-SMA-FITC staining), in words ([2]; by Day 7): significantly diminished
